Reference: article PMC5566834 (2017)

Test system: Rd 13 (DNA, aptamer) CGGGGGGAGGCGGAGGGAGGACTGGGGCTTCATTGACGTTCTTCACAGTAGGGGTAAGGGCTTAGGTGGTTGGTGCCTG
Assay: competitive fluorescence anisotropy
Details: 140 mM Na+, 2 mM K+, 5 mM Mg2+, 2 mM Ca2+; 20 mM Tris pH 7.4; PosBD displaced; 1,000 pmol drug in 125 μl; less than posaconazole

OC(Cn1cncn1)(Cn1cncn1)c1ccc(F)cc1F
binding: weak
